Activity calls are given as the source filed them.
Tests used:
Tumor necrosis factor = Tumor necrosis factor (Homo sapiens, UniProt P01375); assay: analog potency on TNFa NF-kB signaling – cell-based, revised, SAR follow-up (AID 2337); assay type: functional
[1] = biological target: T1, Nucleotide-binding oligomerization domain-containing protein 1 (Homo sapiens, UniProt Q9Y239); assay: blockers of NOD1 pathway activity – revised, SAR follow-up (AID 2333); assay type: functional
T1 sequence (Q9Y239 whole entry): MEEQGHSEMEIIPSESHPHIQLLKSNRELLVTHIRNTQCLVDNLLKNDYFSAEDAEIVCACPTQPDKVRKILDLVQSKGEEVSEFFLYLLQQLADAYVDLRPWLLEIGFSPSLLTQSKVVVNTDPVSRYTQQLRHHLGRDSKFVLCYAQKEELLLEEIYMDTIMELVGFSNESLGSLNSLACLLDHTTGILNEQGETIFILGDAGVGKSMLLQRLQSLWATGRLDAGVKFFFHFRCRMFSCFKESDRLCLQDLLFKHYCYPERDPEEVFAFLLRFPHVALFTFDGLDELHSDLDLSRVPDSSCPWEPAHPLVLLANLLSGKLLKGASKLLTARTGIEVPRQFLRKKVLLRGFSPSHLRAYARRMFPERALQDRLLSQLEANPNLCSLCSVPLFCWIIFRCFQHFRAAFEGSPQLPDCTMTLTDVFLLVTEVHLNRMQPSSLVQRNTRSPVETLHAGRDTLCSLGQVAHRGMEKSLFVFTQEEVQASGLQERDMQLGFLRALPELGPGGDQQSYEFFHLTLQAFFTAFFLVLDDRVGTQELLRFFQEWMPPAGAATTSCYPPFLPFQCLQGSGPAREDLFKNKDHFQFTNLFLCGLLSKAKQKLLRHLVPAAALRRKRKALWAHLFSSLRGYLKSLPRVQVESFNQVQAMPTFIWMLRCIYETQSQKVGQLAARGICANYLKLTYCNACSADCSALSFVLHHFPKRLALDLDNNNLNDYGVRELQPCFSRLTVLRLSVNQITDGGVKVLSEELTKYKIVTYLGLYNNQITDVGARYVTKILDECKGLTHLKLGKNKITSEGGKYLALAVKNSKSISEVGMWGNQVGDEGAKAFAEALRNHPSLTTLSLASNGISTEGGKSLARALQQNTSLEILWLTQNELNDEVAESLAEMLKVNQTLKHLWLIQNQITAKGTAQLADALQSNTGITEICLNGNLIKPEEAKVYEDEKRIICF

HEK293 = assay: cells; conditions: Homo sapiens;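 also: cells exposed to compound for 14 hours overnight before viability readout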
[2] = biological target: T2, RNA-binding protein pos-1 (Caenorhabditis elegans, UniProt G5EF15); assay: disruptors of C. elegans POS-1 RNA interaction – biochemical, fluorescence polarization, dose response (AID 1964);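 also: purified POS-1 fused to maltose binding protein made in E. coli; potency of compounds blocking POS-1 binding to fluorescent RNA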
T2 sequence (G5EF15 whole entry): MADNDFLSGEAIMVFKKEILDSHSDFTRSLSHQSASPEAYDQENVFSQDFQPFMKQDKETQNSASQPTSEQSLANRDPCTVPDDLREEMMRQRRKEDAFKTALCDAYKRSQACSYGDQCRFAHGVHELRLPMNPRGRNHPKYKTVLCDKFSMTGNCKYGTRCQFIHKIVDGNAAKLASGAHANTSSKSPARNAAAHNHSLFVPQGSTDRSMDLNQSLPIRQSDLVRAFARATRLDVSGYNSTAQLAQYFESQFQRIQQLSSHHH

[3] = biological target: T3, Zinc finger protein mex-5 (Caenorhabditis elegans, UniProt Q9XUB2); assay: potency of MEX-5 RNA-binding blockers – biochemical, C. elegans, fluorescence polarization, dose response (AID 1960)
T3 sequence (Q9XUB2 whole entry): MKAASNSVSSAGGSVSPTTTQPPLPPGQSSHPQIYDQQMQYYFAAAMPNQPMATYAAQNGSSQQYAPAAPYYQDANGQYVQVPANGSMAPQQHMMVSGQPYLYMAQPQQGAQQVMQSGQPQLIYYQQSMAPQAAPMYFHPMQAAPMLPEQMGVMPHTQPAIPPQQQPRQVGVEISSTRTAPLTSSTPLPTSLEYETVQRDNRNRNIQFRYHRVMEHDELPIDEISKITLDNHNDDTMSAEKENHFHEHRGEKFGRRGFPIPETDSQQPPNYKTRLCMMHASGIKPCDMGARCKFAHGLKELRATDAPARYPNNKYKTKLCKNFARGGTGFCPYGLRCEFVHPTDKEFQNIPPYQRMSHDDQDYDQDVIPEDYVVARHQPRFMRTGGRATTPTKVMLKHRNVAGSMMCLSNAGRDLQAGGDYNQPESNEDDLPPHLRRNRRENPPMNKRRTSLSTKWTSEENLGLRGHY

[4] = biological target: T4, E3 ubiquitin-protein ligase XIAP (Homo sapiens, UniProt P98170); assay: Counter Screen using XIAP-Bir3 for Chemical Antagonists of Bir1/2 domains of IAP-family anti-apoptotic proteins. [Related pubchem assays (depositor defined):AID1018, AID1449, AID1514, AID1638, AID1749, AID1750, AID488957, AID488963]
T4 sequence (P98170 whole entry): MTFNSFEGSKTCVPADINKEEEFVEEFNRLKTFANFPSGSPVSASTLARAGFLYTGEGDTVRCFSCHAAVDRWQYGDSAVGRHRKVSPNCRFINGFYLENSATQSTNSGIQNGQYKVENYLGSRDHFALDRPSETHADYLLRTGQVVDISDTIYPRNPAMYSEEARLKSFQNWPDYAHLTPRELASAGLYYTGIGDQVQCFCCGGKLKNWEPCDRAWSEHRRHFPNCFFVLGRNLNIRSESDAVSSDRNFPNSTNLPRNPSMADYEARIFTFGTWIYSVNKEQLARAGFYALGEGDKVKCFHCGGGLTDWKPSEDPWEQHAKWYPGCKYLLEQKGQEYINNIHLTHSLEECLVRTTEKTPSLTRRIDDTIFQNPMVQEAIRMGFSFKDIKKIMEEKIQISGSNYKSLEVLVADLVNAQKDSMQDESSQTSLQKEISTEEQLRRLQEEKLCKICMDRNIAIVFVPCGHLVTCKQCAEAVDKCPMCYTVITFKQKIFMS

[5] = biological target: T4, E3 ubiquitin-protein ligase XIAP; assay: small molecules displacing peptide from XIAP – biochemical, IAP family, fluorescence polarization (AID 1018); assay type: functional
Trypsin = Trypsin (Sus scrofa, UniProt P00761); assay: trypsin protease activity blockade – biochemical, quenched peptide fluorescence, cherry-pick, selectivity assay for Rce1 protease inhibitor project, dose response (AID 488789)
Sequence of Trypsin (P00761 whole entry): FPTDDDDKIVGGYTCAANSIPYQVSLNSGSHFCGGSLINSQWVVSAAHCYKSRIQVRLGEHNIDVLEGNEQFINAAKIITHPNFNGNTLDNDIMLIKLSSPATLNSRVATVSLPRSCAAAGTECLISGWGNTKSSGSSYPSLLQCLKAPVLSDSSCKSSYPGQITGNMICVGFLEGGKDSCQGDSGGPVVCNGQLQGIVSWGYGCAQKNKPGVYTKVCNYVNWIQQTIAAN

CAAX prenyl protease 2 [6] = biological target: T5, CAAX prenyl protease 2 (Saccharomyces cerevisiae S288c, UniProt Q03530); assay type: biochemical
T5 sequence (Q03530 whole entry): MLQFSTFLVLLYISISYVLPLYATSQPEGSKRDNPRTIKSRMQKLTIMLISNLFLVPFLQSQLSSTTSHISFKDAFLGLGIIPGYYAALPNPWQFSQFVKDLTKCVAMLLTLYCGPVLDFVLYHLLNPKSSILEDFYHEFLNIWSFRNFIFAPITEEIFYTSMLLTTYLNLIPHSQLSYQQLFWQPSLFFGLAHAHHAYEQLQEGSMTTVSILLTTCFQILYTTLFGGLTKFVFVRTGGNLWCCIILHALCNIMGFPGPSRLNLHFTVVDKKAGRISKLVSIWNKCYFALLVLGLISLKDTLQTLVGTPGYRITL

CAAX prenyl protease 2 [7] = biological target: T6, CAAX prenyl protease 2 (Homo sapiens, UniProt Q9Y256); assay: inhibition of Ras-converting CAAX protease Rce1 – biochemical, yeast membranes, quenched-peptide fluorescence, cherry-pick, dose response (AID 588849)
T6 sequence (Q9Y256 whole entry): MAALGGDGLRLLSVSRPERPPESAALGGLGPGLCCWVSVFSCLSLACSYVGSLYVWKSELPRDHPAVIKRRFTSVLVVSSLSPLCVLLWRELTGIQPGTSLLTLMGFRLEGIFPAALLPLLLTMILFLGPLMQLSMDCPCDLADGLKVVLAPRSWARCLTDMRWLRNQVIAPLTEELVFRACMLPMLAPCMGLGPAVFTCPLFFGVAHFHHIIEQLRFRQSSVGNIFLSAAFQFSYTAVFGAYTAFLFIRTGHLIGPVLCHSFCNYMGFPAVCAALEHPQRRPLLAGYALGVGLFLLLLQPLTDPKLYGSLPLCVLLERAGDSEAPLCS

Hexokinase HKDC1 = biological target: T7, Hexokinase HKDC1 (Homo sapiens, UniProt Q2TB90); assay: inhibition of HKDC1 glucose phosphorylation – biochemical, W721R variant, dose response (AID 504729); assay type: functional
T7 sequence (Q2TB90 whole entry): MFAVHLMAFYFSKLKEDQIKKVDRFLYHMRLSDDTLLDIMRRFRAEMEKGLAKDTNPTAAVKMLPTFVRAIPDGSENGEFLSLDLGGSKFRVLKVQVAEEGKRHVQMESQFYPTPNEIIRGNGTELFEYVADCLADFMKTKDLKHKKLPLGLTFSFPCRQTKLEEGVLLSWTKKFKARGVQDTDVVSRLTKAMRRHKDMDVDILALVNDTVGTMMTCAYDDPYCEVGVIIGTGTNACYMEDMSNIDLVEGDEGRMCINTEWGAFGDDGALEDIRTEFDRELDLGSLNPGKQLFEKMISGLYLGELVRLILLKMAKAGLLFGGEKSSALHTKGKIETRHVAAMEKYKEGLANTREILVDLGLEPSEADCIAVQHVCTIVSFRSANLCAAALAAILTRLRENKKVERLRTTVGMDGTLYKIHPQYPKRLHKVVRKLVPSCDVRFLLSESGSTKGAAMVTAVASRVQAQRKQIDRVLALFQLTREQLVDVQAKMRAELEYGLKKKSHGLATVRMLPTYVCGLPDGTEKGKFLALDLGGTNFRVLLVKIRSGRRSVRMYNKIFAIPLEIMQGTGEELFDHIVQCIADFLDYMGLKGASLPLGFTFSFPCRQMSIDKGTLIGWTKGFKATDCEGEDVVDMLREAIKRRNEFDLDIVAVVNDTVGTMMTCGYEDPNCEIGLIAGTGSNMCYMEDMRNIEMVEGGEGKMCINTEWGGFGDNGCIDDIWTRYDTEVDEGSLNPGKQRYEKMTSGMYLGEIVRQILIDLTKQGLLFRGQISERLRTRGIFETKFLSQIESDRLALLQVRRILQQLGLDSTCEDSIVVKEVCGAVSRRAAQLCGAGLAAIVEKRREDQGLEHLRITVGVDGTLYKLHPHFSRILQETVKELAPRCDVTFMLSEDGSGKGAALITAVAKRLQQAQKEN

INS1 = assay: INS-1E survival protection against cytokine death – cell-based, luminescence, retest, dose response (AID 449756); assay type: functional; conditions: Rattus norvegicus;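 also: cell death triggered by IL-1 beta plus TNF-alpha plus IFN-gamma mixture; protective hits raise ATP signal compared with cytokine alone wells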
[8] = HPDE-C7 pancreatic duct cell viability loss – fluorescence, HTS (AID 430); assay type: functional, cell-based; conditions: Homo sapiens
[9] = viability loss of HPDE-C7K cells – cell-based, fluorescence, HTS, primary screen (AID 431); assay type: functional; conditions: Homo sapiens
[10] = THP-1 cell cytotoxicity, dose response, cytotoxicity control for non-replicating M. tuberculosis project (AID 489025); assay type: functional
cells = assay type: functional
Jurkat = assay: blockers of NF-kB activation in T cells – Jurkat, luciferase reporter, luminescence, B- and T-cell, dose response (AID 489004); assay type: functional, cell-based; conditions: Homo sapiens;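 also: NF-kB luciferase reporter Jurkat cells stimulated with PMA plus ionomycin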
[11] = HEK-293T viability loss, compound-treated – cell-based, uHTS hits, cytotoxicity control for B/T-cell NF-kB inhibitor project, dose response (AID 489019); assay type: functional;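 also: IC50 reflects cytotoxicity as loss of cell viability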
[12] = luciferase reporter signal suppression in cells – H4 neuroglioma cells, luminescence, dose response (AID 1990); assay type: functional, cell-based
[13] = Luminescence Cell-Based Dose Response HTS to Identify Inhibitors of 5'UTR Stem-Loop Driven Prion Protein mRNA Translation in H4 Neuroglioblastoma Cells. [Related pubchem assays: 1827 (Project Summary), 1813 (Primary HTS)]; assay type: functional
[14] = alpha-synuclein stem-loop luciferase translation blockers – H4 neuroglioma cells, luminescence, confirmation (AID 1988); assay type: functional, cell-based
[15] = Trypanosoma cruzi growth suppression in host cells – NIH3T3 host cells, beta-gal luminescence, confirmation (AID 2044); assay type: functional, cell-based;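 also: intracellular parasites grown in NIH/3T3 mouse fibroblasts as host cells; luminescent beta-galactosidase reporter signal from transgenic T. cruzi replicating inside host cells; inhibitors lower the luminescence signal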
[16] = NIH3T3 cell viability loss – ATP luminescence, mouse fibroblasts, counter-screen, dose response (AID 2010); assay type: functional, cell-based;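 also: cells exposed to compound for about 90 hours before reading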
[17] = reduction of Shn3 3'UTR-driven luciferase in osteoblasts – cell-based, Clone20 osteoblasts, firefly luciferase, cherry-picked, dose response (AID 624132); assay type: functional;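 also: firefly luciferase luminescence from reporter carrying the Shn3 3'UTR in osteoblasts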
[18] = loss of viability in HepG2 cells – cell-based, CellTiter-Glo, cherry-picked, cytotoxicity control for Shn3 inhibitor project, dose response (AID 624134); assay type: functional
[19] = non-specific 3'UTR reporter inhibition in Clone20-Shn3RL – cell-based, Renilla luciferase, cherry-picked, counter-screen for Shn3 inhibitor project, dose response (AID 624133); assay type: functional

Sequence of Tumor necrosis factor (P01375 whole entry, the tested form may be a part): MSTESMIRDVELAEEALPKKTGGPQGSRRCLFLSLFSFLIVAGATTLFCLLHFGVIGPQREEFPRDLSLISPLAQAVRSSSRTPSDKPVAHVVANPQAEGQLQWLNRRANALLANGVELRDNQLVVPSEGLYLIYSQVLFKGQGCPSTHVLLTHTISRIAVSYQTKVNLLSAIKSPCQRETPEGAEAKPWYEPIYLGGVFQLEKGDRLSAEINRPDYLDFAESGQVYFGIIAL

For CC(=O)Nc1ccc(NC(=O)c2ccc(CN3CCc4ccccc4C3)cc2)cc1, the IC50 (Tumor necrosis factor) was > 20 µM (inactive), the IC50 [1] was > 20 µM (inactive) and the IC50 (HEK293) was > 20 µM (inactive).

With Cc1cc(O)n2nc(N)c(N=Nc3ccccc3)c2n1 the EC50 [2] was 37.8 µM (active), the EC50 [3] was 15.2 µM (active) and the IC50 [4] was > 100 µM (inactive). The IC50 [5] was > 100 µM (not active).

With COc1ccccc1-c1coc2c(CN3CCOCC3)c(O)ccc2c1=O the AC50 (Trypsin) was 44.4 µM (active), the AC50 (CAAX prenyl protease 2 [6]) was 52.5 µM (active) and the AC50 (CAAX prenyl protease 2 [7]) was 11.8 µM (active).

With Cc1cc(C)n2nc(SCc3nnc(SCc4ccccc4C)s3)nc2n1 the IC50 (Hexokinase HKDC1) was 5.17 µM (active) and the AC50 (INS1) was 22.9 µM (active).

With O=C(Oc1cccc2cccnc12)c1ccc2c(c1)OCCO2 the EC50 [8] was 5.8 µM (active), the EC50 [9] was 7.02 µM (active) and the CC50 [10] was 22.8 µM (active). The IC50 (cells) was 3.9 µM (active).

With C=CCn1cc(-c2ccccc2)cc(C#N)c1=O the AC50 (Trypsin) was 7.96 µM (active) and the AC50 (CAAX prenyl protease 2 [7]) was 6.89 µM (active).

With CCOC(=O)c1nc2cc3n(c(C)c-2c1C)C(C)C(CC)=C3C (configuration not stated) the AC50 (Trypsin) was 7.97 µM (active), the AC50 (CAAX prenyl protease 2 [6]) was 8.32 µM (active) and the AC50 (CAAX prenyl protease 2 [7]) was 8.45 µM (active).

In the case of C=C1C(O)[C@@H]2O[C@]3(CC[C@H](/C=C/C(C)[C@@H]4CC(C)=CC5(O[C@H](C[C@@](C)(O)C(=O)O)CCC5O)O4)O3)CC[C@H]2O[C@@H]1C(O)CC(C)[C@H]1OC2(CCCCO2)CCC1C (some centres not stated), the IC50 (Jurkat) was 0.17 µM (active), the IC50 [11] was > 80 µM (inactive) and the AC50 (INS1) was < 0.195 µM (active).

In the case of C=C(C)C1CC=C(C)/C(=N/NC(=O)CNc2ccc(C)cc2C)C1 (configuration not stated), the IC50 [4] was > 100 µM (inactive) and the IC50 [5] was > 100 µM (not active).

For c1ccc(CCNc2ccnc3cc4ccccc4cc23)cc1, the EC50 [12] was > 120 µM (not active), the EC50 [13] was 17.3 µM (active) and the EC50 [14] was 7.98 µM (active). For the same compound, the EC50 [15] was 1.68 µM (active), the EC50 [16] was > 30 µM (not active) and the AC50 (Trypsin) was 11.2 µM (active). The AC50 (CAAX prenyl protease 2 [6]) was 12.8 µM (active), the AC50 (CAAX prenyl protease 2 [7]) was 94 µM (active) and the AC50 [17] was 1.62 µM (active). For the same compound, the AC50 [18] was 8.78 µM (active) and the AC50 [19] was 3.45 µM (active).

— ChEMBL document CHEMBL1201862, “PubChem BioAssay data set” (2004)
